Patent publication US20090074885A1, “Reversible Hydrophobic Modification of Drugs for Improved Delivery to Cells” (Roche Madison Inc., priority 2003, published 2009)
Where two headings read alike, the source gives them in different places.

Experiments:
[1] = tested on: B16 murine melanoma cells; assay: CellTiter-Glo luminescent cell viability assay; assay type: cell-based; conditions: 10 min drug solution exposure, 3 h in media, 24 h culture; up to 112 μl delivery solution per well
Experimental: Cells were seeded at 1×10^4 cells/well in 100 μl of media into 96-well plates on day 0 and cultured for 24 h prior to addition of drug. […] Following 10 min of drug solution exposure, 100 μl of fresh media was added to each well and incubated for 3 h. Drug-containing media was replaced with 100 μl of fresh media and cultured for and additional 24 h.

[2] = Analysis of prodrug lability (rate of hydrolysis) of PI derivatives by fluorescent spectroscopy; assay type: physicochemical; conditions: extrapolated to pure buffer (100 mol % H2O)
Experimental: (§1) Analysis of prodrug lability. The prodrugs were tested for their rate of hydrolysis at pH 6.0, 7.2 and 8.5 using fluorescent spectroscopy. Lability studies for C12CON-PI and RRH-PI (rapidly reversible hydrophobic-PI) derivatives were conducted on a Cary Eclipse Fluorescence Spectrophotometer (Varian Inc.).
To solutions of PI and RRH-prodrugs of PI (7.48 μM in DMSO) were added various amounts of buffer (25 μL, 50 μL, and 100 μL of 20 mM Hepes buffer) at different pH. Upon cleavage of the hydrophobic modification and regeneration of PI, the fluorescence of the solution increased (λex=493 nm, λem=647 nm, excitation and emission slit width=5 nm, and emission PMT=600V) and was assayed as a function of time (20 min).
(§2) The resulting curves were normalized for intensity and fit to an exponential equation (Origin) to determine kdetermined for each solution. The kdetermined for each compound at appropriate pH were plotted against the mol % of H2O, and the best fit line was solved for kbuffer for 100 mol % H2O. These derived kbuffer values were used to determine the half-life of the prodrug in pure buffer according to the equation t1/2=1n2/k.

[3] = tested on: SK-OV-3 (human ovarian carcinoma) cells; assay: In vitro cellular uptake by fluorescence microscopy, SK-OV-3; assay type: cell-based; conditions: fluorescein channel
Experimental: In Vitro cellular uptake of PI, RRH-PI compounds, and IV evaluated by fluorescence measurements. […] Adherent cells were plated at 2.5×10^5 cells/well on 6-well plates 24 h prior to testing. The growth media was removed from individual wells and the drug/prodrug was immediately added to the well with the mixing chamber. […] After 30 sec the drug solution was removed (aspirated) and 2 ml complete media was added to the cells. Experiments conducted with prodrug that was hydrolyzed prior to application to the cells followed a similar protocol, however the combined solution obtained after passing through the mixing chamber was collected and allowed to sit at ambient temperature for 5 min prior to application on the cells. Experiments conducted with Calcein AM (Invitrogen, 100 μl of 20 μM solution in complete media) followed a similar protocol for drug treatment (4 min treatment). Experiments conducted with SYTOX Green (Invitrogen) followed a similar protocol for drug treatment. […] Each condition was repeated in 2 or 3 wells, and the cells were immediately examined by microscopy. Fluorescent microscopy studies were conducted with a three laser LSM 510 confocal microscope, an Axiovert S100 fluorescent microscope, or an Axioplan2 fluorescent microscope (all Zeiss) equipped with filter sets for the rhodamine fluorescence channel (λex=BP 450/12, λem=LP 590 nm filter set) and the fluorescein fluorescent channel (λex=BP 546/90, λem=LP 515 nm filter set). Imaging was performed with an AxioCam digital camera (Zeiss), with AxioVision imaging software (V 4.5, Zeiss). For all images, identical camera settings and exposure times were used on comparative sample and control images. Images were processed with Photoshop (Adobe) for level and brightness using identical settings between sample and control images. For experiments conducted with IV, the cells were plated on 6-well plates with cover slips. […] Imaging was conducted on an Axioplan2 fluorescent microscope (Zeiss) and the same fields were imaged with phase contrast illumination, in the rhodamine fluorescence channel (λex=BP 450/12, λem=LP 590 nm filter set), and in the fluorescein fluorescent channel (λex=BP 546/90, λem=LP 515 nm filter set). IV was also mixed with PI and then delivered to SK-OV-3 cells, and the cells were imaged as before. In one protocol, equal amounts of IV (15.0 mM in DMSO) and PI (15.0 mM in DMSO) were combined and the resulting solution was added to cells via the mixing chamber. In a second method, PI was taken up in the ITG solution (0.748 mM) and mixed with IV (7.48 mM in DMSO) in the mixing chamber. […] The cells were imaged as before following 30 sec-4 min exposure to the drug solution.

SK-OV-3 cells = assay: Uptake of PI mixed with hydrophobic derivative (membrane damage test), SK-OV-3; assay type: cell-based, human; conditions: compared to cells treated with PI alone
Experimental: (§3) For experiments conducted with IV, the cells were plated on 6-well plates with cover slips. Following treatment as above, the cover slip was immediately removed and inverted over 1 drop of media for imaging, or the cells were incubated for 1 h prior to removal of the cover slip and imaging. Imaging was conducted on an Axioplan2 fluorescent microscope (Zeiss) and the same fields were imaged with phase contrast illumination, in the rhodamine fluorescence channel (λex=BP 450/12, λem=LP 590 nm filter set), and in the fluorescein fluorescent channel (λex=BP 546/90, λem=LP 515 nm filter set). IV was also mixed with PI and then delivered to SK-OV-3 cells, and the cells were imaged as before. In one protocol, equal amounts of IV (15.0 mM in DMSO) and PI (15.0 mM in DMSO) were combined and the resulting solution was added to cells via the mixing chamber. In a second method, PI was taken up in the ITG solution (0.748 mM) and mixed with IV (7.48 mM in DMSO) in the mixing chamber. Similarly, V (15 mM and 30 mM in DMSO) was mixed with PI and delivered to Hepa 1-6 and SK-OV-3 cells using the second method. The cells were imaged as before following 30 sec-4 min exposure to the drug solution.

[4] = tested on: Hepa 1-6 (mouse hepatoma); assay: WST cytotoxicity assay, Hepa 1-6; assay type: cell-based
Experimental: (§4) Antiproliferative/Cytotoxic in vitro studies on PI, RRH-PI prodrugs, melphalan, and C12PMMA-melphalan. In vitro cytotoxicity testing was conducted on Hepa 1-6 (mouse hepatoma), SK-OV-3 (human ovarian carcinoma), and MC38 (mouse colon carcinoma) cells using a tetrazolium based assay (WST, Dojindo Molecular Technologies). For the WST assay, Hepa 1-6 (2.0×10^5 cells well), SK-OV-3 (7.5×10^5 cells well), and MC38 (8.5×10^5 cells well) were seeded in 1000 μL media into 12-well plates 24 h prior to testing (starting confluency ˜50%). Following removal of media, drug/prodrug solution was added drop-wise to quadruplicate wells, using the mixing chamber. Effective drug concentrations were calculated from the amount of drug added in the total volume of OS and aqueous solution. Following 4 min of drug solution exposure, the solution was removed, and 1000 μl fresh complete media was added to each well. After the cells were incubated for 24-48 h, WST-1 (20 μl of a 5 mM solution in PBS) and N-methylphenazonium methyl sulfate (PMS, 20 μl 0.2 mM solution in PBS) were added and the cells were incubated for 1-4 h. For testing with MC38 cells, the amounts of WST-1 and PMS were doubled. Following incubation, 100 μl of sample was transferred to quadruplicate wells on a 96-well plate, and the absorbance (438 nm) values were measured on a SPECTRAmax Plus^384 microplate spectrophotometer (Molecular Devices Corporation). Data represents the mean A438 values of 16 wells with standard deviation, corrected for media contribution, and normalized against cells in media with no drug/prodrug treatment (reported as % cell viability±standard deviation).
(§5) The concentration of drug (μM) that is required for 50% inhibition in vitro is reported as the IC50. The reported values were calculated from the best fit line (Excel) for a plot of effective drug concentration against % cell viability, and include the r^2 value. The reported IC50 values for multiple RRH-PI plots are reported as IC50 (μM)±standard deviation.

[5] = tested on: SK-OV-3 (human ovarian carcinoma); assay: WST cytotoxicity assay, SK-OV-3; assay type: cell-based
Experimental: as §4, §5

[6] = Dynamic light scattering particle size; assay type: physicochemical; conditions: following mixing with ITG through mixing chamber
Experimental: (§6) Light Scattering analysis of prodrugs. Particle size was determined by dynamic light scattering on a Zeta Plus (Zeta Potential Analyzer, Brookhaven Instrument Corporation, λ 533 nm, 90°), and results are reported as the size of the most abundant particle (range of particle sizes, counts sec^−1). Fluorescent compounds were also analyzed for particles qualitatively, by measuring for light scattering on a Cary Eclipse Fluorescence Spectrophotometer (Varian Inc.), with λex=λem (300-800 nm, 90° detection). The presence of particles in solution results in an increase in signal detection at 90°. PI and RRH-PI prodrugs were 7.48 mM in DMSO. Melphalan and V were 50 mM in DMSO. The drug/prodrug solutions were mixed and diluted with ITG through the mixing chamber (40 μl OS and 400 μl ITG), and analyzed immediately.

[7] = Qualitative 90° light scattering for particles; assay type: physicochemical; conditions: relative to ITG or PI in ITG
Experimental: as §6

[8] = tested on: MC38 (mouse colon carcinoma); assay: WST cytotoxicity assay, MC38; assay type: cell-based; conditions: MC38, 4 min drug exposure, WST 48 h after
Experimental: as §4, with “For testing with MC38 cells, the amounts of WST-1 and PMS were doubled.” left out, “Data represents the mean A438 values of 16 wells with standard deviation, corrected for media contribution, and normalized against cells in media with no drug/prodrug treatment (reported as % cell viability±standard deviation).” left out

[9] = Hydrolysis of V monitored by reaction of liberated melphalan with fluorescamine; assay type: physicochemical; conditions: pH 6.0; for Half-life: extrapolated to pure buffer (100 mol % H2O)
Experimental: as §1
Alternatively, to solutions of fluorescamine (857 μM in DMSO) were added various amounts of buffer (20 μL, 30 μL, 40 μL, 50 μL, and 70 μL of 100 mM MES buffer, pH 6.0) followed by melphalan or V (249 μM final concentration in DMSO). The fluorescence of the solution (λex=380 nm, λem=464 nm, excitation and emission slit width=5 nm, and emission PMT=600V) was assayed as a function of time (40 min). At each buffer concentration the reaction of fluorescamine and melphalan was more rapid than hydrolytic breakdown of V.
as §2

Hepa 1-6 = assay: Uptake of PI mixed with hydrophobic derivative (membrane damage test), Hepa 1-6; assay type: cell-based, mouse; conditions: compared to PI alone
Experimental: as §3

[10] = Trypan blue assay for membrane disruption; assay type: cell-based
[11] = Hepa 1-6, 4 min drug exposure, WST 48 h after, read-out: Mean IC50
[12] = SK-OV-3, 4 min drug exposure, WST 48 h after, read-out: Mean IC50

CCCCCCCCCCCCCCCCCC[Si](C)(C)N.CCCCCCCCCCCCCCCCCC[Si](C)(C)N.[Cl][Pt][Cl] [BDMODS-CP, Cl2Pt(NH2Si(CH3)2C18H37)2]
antiproliferative/cytotoxic effect (RLU) [1]: complete cytotoxic effect

CCCCCCCCCCCC(=O)Nc1ccc2c(c1)c(-c1ccccc1)[n+](CCC[N+](C)(CC)CC)c1cc(NC(=O)CCCCCCCCCCC)ccc21.[I-].[I-] [IV, 3,8-bis-undecylcarbanylamino 5-(3,3-diethyl-3-methylammoniumpropyl) 6-phenyl phenanthridinium diiodide]
Half-life ([2]; pH 7.2): non-labile | Half-life ([2]; pH 8.5): non-labile | fluorescent signal localisation ([3]; after one hour incubation): more defined punctate signal | fluorescent signal localisation ([3]; immediately following application): diffuse signal was observed along the cell membrane | nuclear PI staining when delivered together with PI (SK-OV-3 cells): no increased levels of nuclear PI staining detected | IC50 ([4]; Hepa 1-6, 4 min drug exposure, WST 24 h after, read-out: Mean IC50): 585 µM | IC50 [4, 11]: 429 µM | IC50 ([5]; SK-OV-3, 4 min drug exposure, WST 24 h after, read-out: Mean IC50): 455 µM | IC50 [5, 12]: 342 µM | range of particle sizes [6]: 28-42 nm | size of the most abundant particle [6]: 36 nm | increase in 90° light scattering signal intensity [7]: 15 fold

N[C@@H](Cc1ccc(N(CCCl)CCCl)cc1)C(=O)O [Melphalan, reference compound]
viability at 1458 µM ([4]; Mus musculus, Hepa1-6, 48 h, read-out: cell viability at highest concentration tested, Hepa 1-6, 48 h, 1458 μM): 81% | IC50 ([4]; Mus musculus, Hepa1-6, read-out: Mean IC50): > 1460 µM | viability at 1458 µM ([5]; Homo sapiens, SK-OV-3, 48 h, read-out: cell viability at highest concentration tested, SK-OV-3, 48 h, 1458 μM): 70 ± 11% | IC50 ([5]; Homo sapiens, SK-OV-3, read-out: Mean IC50): > 1460 µM | IC50 ([8]; Mus musculus, MC-38): 1180 µM

CCCCCCCCCCCCNC(=O)CCC(=CCC(=O)O)C(=O)NC(Cc1ccc(N(CCCl)CCCl)cc1)C(=O)O (centres unmarked) [V, 3,9-diaza, 2-[4-{bis(2-chloroethyl)amino}phenylmethyl], 5-(2-carboxylethylidine), 4,8-dioxo uncosanoic acid]
k [9]: (1.62 min^−1) | Half-life [9]: 28 s | Half-life ([9]; listed as C12PMMA-Melphalan (V)): 25.7 s | nuclear PI staining when delivered together with PI (SK-OV-3 cells): no increased levels of nuclear PI staining were observed | nuclear PI staining when delivered together with PI (Hepa 1-6): no increased levels of nuclear PI staining were observed | generalized membrane disruption [10]: neither V or methyl aniline silylated with chloro(dimethyl)octadecylsilane caused generalized membrane disruption | IC50 [4, 11]: 330 µM | IC50 [5, 12]: 384 µM | IC50 [8]: 304 µM | range of particle sizes [6]: 36-66 nm | size of the most abundant particle [6]: 36 nm
